PubChem BioAssay AID540268 (Broad Institute, 2011)
The source made the active and inactive calls. No rule for the calls is given here.

Assay: reduced viability of parasite-Hsp90 expressing yeast – ATP luminescence, 48 h, cherry-picked samples, anti-malarial Hsp90 inhibitor project, dose response (AID 540268);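 as to activity change, negative = inhibition: 0% = neutral control wells and -100% = positive control wells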
Details: yeast expressing the parasite Hsp90, ATP luminescence; for activity change, negative = inhibition: at 26 µM (top of the series)

| Structure (SMILES) | AC50 | activity change, negative = inhibition |
| --- | --- | --- |
| O=C(Nc1ccccc1)C(Cl)C(=O)c1ccccc1 (configuration not stated) | 0.532 µM |  |
| CCOC(=O)c1ccc(N2C(=O)CC(N3CCC(O)(c4ccc(Cl)cc4)CC3)C2=O)cc1 (configuration not stated) | 4.04 µM |  |
| CC(=NNC(=S)N1CC2CCC(CC2)C1)c1nccs1 | 25.7 µM |  |
| CCC(C)n1ncn(-c2ccc(N3CCN(c4ccc(OCC5COC(Cn6cncn6)(c6ccc(Cl)cc6Cl)O5)cc4)CC3)cc2)c1=O (configuration not stated) | < 0.195 µM |  |
| O=c1cc2oc3cc(O)c(O)cc3c(-c3ccccc3[N+](=O)[O-])c-2cc1O | 3.19 µM |  |
| Cc1ccc(C(c2cc(Cl)c3cccnc3c2O)N2CCN(C)CC2)cc1 (configuration not stated) | 0.507 µM |  |
| CN(CC(=O)Nc1cccc(F)c1)C(=O)c1cn(-c2ccccc2)nc1-c1ccc(Cl)cc1 | 7.8 µM |  |
| O=C(CSCC(=O)N1CCCCC1)Nc1nc(-c2ccc(Cl)s2)cs1 | 4.76 µM |  |
| CCOC(=O)C1CCCN(C2CC(=O)N(c3cccc(C(F)(F)F)c3)C2=O)C1 (configuration not stated) | 4.24 µM |  |
| CCCc1ccc(Oc2cn[nH]c2-c2ccc(O)c(C)c2O)cc1 | 0.408 µM |  |
| Cc1ccc2[nH]c(C)c(/C=N/Nc3nc4ccccc4s3)c2c1 | 2.63 µM |  |
| O=[N+]([O-])c1oc2ccc3ccccc3c2c1CCO | 2.06 µM |  |
| Cc1ccc(N2C(=O)C3C4C=CC(CNC(=S)Nc5cccc(Cl)c5)(O4)C3C2=O)cc1 (configuration not stated) | 8.74 µM |  |
| CCC(=O)NC(c1cccs1)c1cc(Cl)c2cccnc2c1O (configuration not stated) | 3.73 µM |  |
| CCCCC(=O)NC(c1cccc([N+](=O)[O-])c1)c1ccc2cccnc2c1O (configuration not stated) | 2.62 µM |  |
| C=CCn1c(O)c(N=Nc2ccccc2O)c2ccccc21 | 8.15 µM |  |
| O=C(CC(n1cncn1)C(Cl)(Cl)Cl)c1ccc([N+](=O)[O-])cc1 (configuration not stated) | 4.42 µM |  |
| O=[N+]([O-])c1ccc(Sc2nc3ccccc3o2)c([N+](=O)[O-])c1 | 3.56 µM |  |
| CCCCN1C(=O)/C(=C/C=C2\Oc3ccccc3N2CC)SC1=S |  | 32.9% (inactive) |
| COc1ccc2c(c1)C=C(C(=O)NCc1ccc(Cl)cc1)CO2 | 4.21 µM |  |
| O=C(/C=C/c1ccccc1)NC(=S)NNC(=O)c1cnccn1 | 3.69 µM |  |
| O=C(OCn1ncc(Cl)c(Cl)c1=O)c1cccc(C(F)(F)F)c1 | 5.36 µM |  |
| Oc1c(CN2CCc3ccccc3C2)cc(Cl)c2cccnc12 | 7.82 µM |  |

| Structure (SMILES) | AC50 | activity change, negative = inhibition |
| --- | --- | --- |
| Clc1ccc(C(Cn2ccnc2)OCc2csc3c(Cl)cccc23)c(Cl)c1 (configuration not stated) | < 0.195 µM |  |
| CC(C)CCOc1cccc(OCC(=O)Nc2ccncc2)c1 | 4.84 µM |  |
| Cc1ccc(C2=NC(C)(C)N=C2SCC(=O)Nc2ccc(Cl)cc2)cc1 | 26.2 µM |  |
| Cc1cccc(NC(=S)N/N=C/c2ccc([N+](=O)[O-])s2)c1 |  | -14.3% (inactive) |
| Oc1ccc(O)c2c1C1(Cl)C(Cl)=C(Cl)C2(Cl)C1(Cl)Cl | 3.87 µM |  |
| COc1ccc(O)c(-c2cc(-c3cccc(Br)c3)n[nH]2)c1 | 7.23 µM |  |
| O=C(/C=C/c1ccc(Cl)c([N+](=O)[O-])c1)c1cccnc1 | 0.806 µM |  |
| CCOCCCNC1=C(Cl)C(=O)c2ccccc2C1=O | 4.93 µM |  |
| Oc1ccc2ccccc2c1N=Nc1ccccn1 | 2.66 µM |  |
| COc1cc(/C=C2\SC(=S)N(Nc3ncc(C(F)(F)F)cc3Cl)C2=O)ccc1O | 25.8 µM |  |
| N#Cc1c2ccc([N+](=O)[O-])cc2[n+]([O-])n1-c1ccccc1 | 2.1 µM |  |
| O=C(/C=C/c1ccc([N+](=O)[O-])cc1)c1ccccc(=O)c1O | 1.04 µM |  |
| Oc1ccccc1N=Nc1nc(-c2ccccc2)c(-c2ccccc2)[nH]1 | 1.98 µM |  |
| Oc1cc(OCc2ccccc2)ccc1-c1[nH]ncc1-c1ccccc1 | 9.04 µM |  |
| CCOc1ccc(C(Nc2cccnc2)c2cc(Cl)c3cccnc3c2O)cc1 (configuration not stated) | 1.5 µM |  |
| Cc1cccc(/C=C/C(=O)c2ccc([N+](=O)[O-])o2)c1 | 1.56 µM |  |
| Oc1c(Br)cc(Br)cc1C=NCc1ccccc1 | 7.51 µM |  |
| O=C1C=CC(=O)N1N(c1ccccc1)c1ccccc1 | 3.38 µM |  |
| CCc1ccccc1NC(=O)c1cccc(Oc2ccc([N+](=O)[O-])cc2Cl)c1 | 4.12 µM |  |
| Cc1ccc(S(=O)(=O)NCC23C=CC(O2)C2C(=O)N(c4ccccc4)C(=O)C23)cc1 (configuration not stated) | 4.8 µM |  |
| Oc1c(Br)cc(Br)cc1C=Nc1cccnc1 | 5.8 µM |  |
| CCC(C)Nc1ccc(NC(C)CC)cc1 (configuration not stated) | 3.26 µM |  |
| O=C(CCc1ccccc1)NC(c1cccs1)c1cc(Cl)c2cccnc2c1O (configuration not stated) | 15.5 µM |  |

| Structure (SMILES) | AC50 | activity change, negative = inhibition |
| --- | --- | --- |
| Cn1c(CNc2ccc(Cl)cc2)nnc1SCc1ccccc1 | 3.43 µM |  |
| CC(C)=CCc1cc([C@@H]2COc3c(ccc4c3C=CC(C)(C)O4)C2)c(O)cc1O | 0.265 µM |  |
| COc1cc(/C=C/[N+](=O)[O-])ccc1OC(=O)c1cc2ccccc2oc1=O | 1.3 µM |  |
| COc1cccc2c1C(=O)c1c(O)c3c(c(O)c1C2=O)CC(O)(C(C)=O)CC3OC1CC(N(C)C)C(O)C(C)O1 (configuration not stated) | 1.58 µM |  |
| CCC(C)(C)n1nnnc1C(c1cccnc1)N1CCC(Cc2ccccc2)CC1 (configuration not stated) | 1.52 µM |  |
| CC1=CN2C(=N)/C(=C/c3ccc([N+](=O)[O-])o3)C(=O)N=C2S1 | 1.34 µM |  |
| OCCCn1c(C2CCCN2c2nc(-c3ccc(F)cc3)cs2)nc2cc(Cl)c(Cl)cc21 (configuration not stated) | 5.62 µM |  |
| CC(=NNC(=S)N1CCN(C2CCCCCC2)CC1)c1ccccn1 | 3.95 µM |  |
| O=C(/C=C/c1ccnc2ccccc12)c1cccs1 | 4.64 µM |  |
| O=C(O)c1cccc2c1Cc1cc([N+](=O)[O-])ccc1-2 | 0.808 µM |  |
| CC(C)C(=O)NC(c1ccc(Cl)cc1Cl)c1ccc2cccnc2c1O (configuration not stated) | 15.3 µM |  |
| CC(C)N(CCC(=O)c1ccc2ccccc2c1)Cc1ccccc1 | 17.6 µM |  |
| O=C(O)CC/C(=N/Nc1ccc([N+](=O)[O-])cc1)C(=O)O | 2.22 µM |  |
| CSc1nnc2c3cc(F)ccc3n(C)c2n1 | 5.49 µM |  |
| O=C(c1ccc(-c2ccccc2)cc1)C1CCCN(C(=O)c2cncs2)C1 (configuration not stated) | 2.72 µM |  |
| COc1cccc(N=Nc2ccc3cccnc3c2O)c1 | 2.39 µM |  |
| COC(=O)c1cc(=O)n(-c2ccc(F)cc2)c(=Nc2ccc(F)cc2)s1 | 13.9 µM |  |
| O=C1C=CC(=O)C2C1C1(Cl)C(Cl)=C(Cl)C2(Cl)C1(Cl)Cl (configuration not stated) | 8.65 µM |  |
| COC(=O)c1ccc(N2C(=O)CC(N(C)Cc3ccccc3)C2=O)cc1 (configuration not stated) | 8.53 µM |  |
| CC1OC(CC(=O)O)CC2=C1C(=O)c1c(O)cccc1C2=O (configuration not stated) | < 0.195 µM |  |
| O=C(Nc1ccccc1)c1nnsc1S(=O)c1ccc(Cl)cc1 (configuration not stated) | < 0.195 µM |  |
| O=C1NC(=S)S/C1=C\C=C\c1ccc([N+](=O)[O-])o1 | 2.45 µM |  |
| CCC1=NN2C(=N)/C(=C\c3cccn3-c3ccc(C)cc3C)C(=O)N=C2S1 | 8.14 µM |  |

| Structure (SMILES) | AC50 | activity change, negative = inhibition |
| --- | --- | --- |
| CC(C)(C)c1ccc(NC(=O)COC(=O)c2ccc([N+](=O)[O-])s2)cc1 | 3.88 µM |  |
| CC(=NNC(=S)N1CCCCCC1)c1ccccn1 | 3.89 µM |  |
| COc1ccccc1OCc1cc(C(=O)N2CCN(C)C(c3ccccc3)C2)no1 (configuration not stated) | 3.05 µM |  |
| CN(C)/C=C/C(=O)c1ccc(Oc2ccccc2)cc1 | 3.92 µM |  |
| COc1ccc(-c2sc3ccccc3c2/C=C/c2ccncc2)cc1 | 4.84 µM |  |
| O=[N+]([O-])/C=C/c1ccc2c(ccn2Cc2ccccc2)c1 | 4.35 µM |  |
| O=Cc1ccc(O)c2ncccc12 | < 0.195 µM |  |
| Cc1cc(N2C(=O)C=CC2=O)c([N+](=O)[O-])cc1C | 1.18 µM |  |
| CCCCC(=O)NC(c1ccco1)c1cc(Cl)c2cccnc2c1O (configuration not stated) | 4.6 µM |  |
| CC(CCc1ccccc1)NC(=O)c1ccc(Br)cc1 (configuration not stated) | 4.71 µM |  |
| CC(C)c1ccc(-c2cc(C(=O)N3N=C(C(F)F)CC3(O)C(F)F)c3ccccc3n2)cc1 (configuration not stated) | 4.24 µM |  |
| CCN1/C(=C/c2ccc3cc(C)ccc3[n+]2CC)Sc2cc(C)ccc21 | 5.54 µM |  |
| O=C(C=Cc1ccccn1)c1ccccc1O | 3 µM |  |
| CCN1CCN(C(c2ccc(C(F)(F)F)cc2)c2ccc3cccnc3c2O)CC1 (configuration not stated) | 1.54 µM |  |
| Cc1cc(N2CCN(c3cccc(C)c3C)CC2)nc(-c2ccccc2)n1 | 2.47 µM |  |
| Cc1cccc(C)c1OCC(=O)NNC(=S)NC(=O)C1CC1 | 1.35 µM |  |
| Clc1ccc(COC(Cn2ccnc2)c2ccc(Cl)cc2Cl)c(Cl)c1 (configuration not stated) | < 0.195 µM |  |
| CC1(c2nnc(Cc3ccccc3)o2)CC(c2ccccc2[N+](=O)[O-])=NO1 (configuration not stated) | 1.77 µM |  |
| C=C(C)COc1ccc(-c2[nH]ncc2Oc2cccc(OC)c2)c(O)c1 | 8.1 µM |  |
| COc1ccc2c(c1)OC[C@H]1[C@H]2N2C(=O)c3cc(Br)ccc3NC(=O)[C@@]2(C)[C@H]1c1ccccc1 | 0.658 µM |  |
| CCN(CC)c1ccc(C(=C2C=CC(=[N+](CC)CC)C=C2)c2ccccc2)cc1 | 1.09 µM |  |
| COc1cccc2c1C(=O)c1c(O)c3c(c(O)c1C2=O)CC(O)(C(=O)CO)CC3OC1CC(N(C)C)C(O)C(C)O1 (configuration not stated) | 1.09 µM |  |
| CCCCN(CCCC)CCC(O)c1cc2c(Cl)cc(Cl)cc2c2cc(C(F)(F)F)ccc12 (configuration not stated) | 7.42 µM |  |

| Structure (SMILES) | AC50 | activity change, negative = inhibition |
| --- | --- | --- |
| COc1ccc(N(C(=O)c2ccncc2)S(=O)(=O)c2ccccc2)cc1 | 1.66 µM |  |
| COc1ccc(SN=C2C(C)=CC(=O)C=C2C)cc1 | 5.7 µM |  |
| O=C(C1CCN(C2CC(=O)N(c3cccc(Cl)c3)C2=O)CC1)N1CCCC1 (configuration not stated) | 3.94 µM |  |
| CN1CCN(C(c2ccc(Br)cc2)c2cc(Cl)c3cccnc3c2O)CC1 (configuration not stated) | 0.535 µM |  |
| COC(=O)C1CN(C#N)N(c2ccc(Cl)cc2)C12c1ccccc1-c1ccccc12 (configuration not stated) | 4.07 µM |  |
| CCOC(=O)C1=C(N)N2C(=O)C(C)SC2=C(C(=O)OC)C1c1ccccc1OC (configuration not stated) | 0.706 µM |  |
| O=C(Nc1ccc(F)cc1)c1nc(S(=O)(=O)Cc2ccccc2)ncc1Cl | 5.68 µM |  |
| CCCc1cc(NCc2ccccn2)n2nc(C)c(-c3ccccc3)c2n1 | 1.29 µM |  |
| COc1ccc(C2=CC3=C(Br)C(=O)C(C)(OC(=O)c4cccs4)C(=O)C3=CO2)cc1 (configuration not stated) | 4.28 µM |  |
| C/C(=N\Nc1nc2ccccc2s1)c1ccc(Br)s1 | 4.47 µM |  |
| O=C(/C=C/c1cccc([N+](=O)[O-])c1)c1ccc([N+](=O)[O-])o1 | < 0.195 µM |  |
| O=C(Oc1c(Cl)cc(Cl)c2cccnc12)c1cccs1 | 4.26 µM |  |
| CC1(C(=O)c2ccccc2)C2c3c(ccc4ccccc34)OC(=O)C21C(=O)N1CCOCC1 (configuration not stated) | 4.16 µM |  |
| O=C(O)c1cccc(NN=C2c3ccccc3-c3ccccc32)c1 | 5.71 µM |  |
| CCCCCCCCCCCCCCCC[N+](C)(C)Cc1ccc(F)cc1 | 0.213 µM |  |
| O=C1C2C3C=CC(C3)C2C(=O)N1CN(Cc1ccccc1)CN1C(=O)C2C3C=CC(C3)C2C1=O (configuration not stated) | 16.6 µM |  |
| COc1ccc(-c2nc(-c3ccccn3)no2)cc1 | 16.2 µM |  |
| O=S(=O)(NC1CC2CCC1C2)c1ccc(Cl)cc1 (configuration not stated) | 3.46 µM |  |
| CCCCCCCCCCCCCCCCn1cc[n+](C)c1 | 2.89 µM |  |
| O=C(Nc1ccccc1N1CCOCC1)c1ccc([N+](=O)[O-])o1 | 4.41 µM |  |
